Converted amounts (≈) assume the structure as drawn.
Assays:
Assay type in all cases: functional
[1] = tested on: Mycobacterium tuberculosis; test: Antituberculosis activity against Mycobacterium tuberculosis H37Rv assessed as growth inhibition after 12 to 28 days by L-J MIC method; details: for MIC: Mycobacterium tuberculosis, H37Rv
Staphylococcus aureus [2] = test: Antimicrobial activity against Staphylococcus aureus MTCC 96 assessed as diameter of growth inhibition zone after 24 hr by paper disk diffusion technique
Escherichia coli [3] = test: Antimicrobial activity against Escherichia coli MTCC 739 assessed as growth inhibition after 24 hr by agar streak dilution technique; details: MTCC 739, 24 h
Staphylococcus aureus [4] = test: Antimicrobial activity against Staphylococcus aureus MTCC 96 assessed as growth inhibition after 24 hr by agar streak dilution technique; details: MTCC 96, 24 h
Pseudomonas aeruginosa [5] = test: Antimicrobial activity against Pseudomonas aeruginosa MTCC 741 assessed as diameter of growth inhibition zone after 24 hr by paper disk diffusion technique
Bacillus subtilis [6] = test: Antimicrobial activity against Bacillus subtilis MTCC 430 assessed as diameter of growth inhibition zone after 24 hr by paper disk diffusion technique
Candida albicans [7] = test: Antimicrobial activity against Candida albicans MTCC 183 assessed as diameter of growth inhibition zone after 24 hr by paper disk diffusion technique
Escherichia coli [8] = test: Antimicrobial activity against Escherichia coli MTCC 739 assessed as diameter of growth inhibition zone after 24 hr by paper disk diffusion technique
Bacillus subtilis [9] = test: Antimicrobial activity against Bacillus subtilis MTCC 430 assessed as growth inhibition after 24 hr by agar streak dilution technique; details: MTCC 430, 24 h
Aspergillus niger [10] = test: Antimicrobial activity against Aspergillus niger MTCC 282 assessed as growth inhibition after 48 hr by agar streak dilution technique; details: MTCC 282, 48 h
Pseudomonas aeruginosa [11] = test: Antimicrobial activity against Pseudomonas aeruginosa MTCC 741 assessed as growth inhibition after 24 hr by agar streak dilution technique; details: MTCC 741, 24 h
Aspergillus niger [12] = test: Antimicrobial activity against Aspergillus niger MTCC 282 assessed as diameter of growth inhibition zone after 24 hr by paper disk diffusion technique
Candida albicans [13] = test: Antimicrobial activity against Candida albicans MTCC 183 assessed as growth inhibition after 48 hr by agar streak dilution technique; details: MTCC 183, 48 h

Structure (SMILES) | growth inhibition (GI) [1] [%] | MIC [1] [µg/mL] | diameter of the inhibition zone (DIZ) (Staphylococcus aureus [2]) [mm] | MIC (Escherichia coli [3]) [µg/mL] | MIC (Staphylococcus aureus [4]) [µg/mL] | diameter of the inhibition zone (DIZ) (Pseudomonas aeruginosa [5]) [mm] | diameter of the inhibition zone (DIZ) (Bacillus subtilis [6]) [mm] | diameter of the inhibition zone (DIZ) (Candida albicans [7]) [mm] | diameter of the inhibition zone (DIZ) (Escherichia coli [8]) [mm] | MIC (Bacillus subtilis [9]) [µg/mL] | MIC (Aspergillus niger [10]) [µg/mL] | MIC (Pseudomonas aeruginosa [11]) [µg/mL] | diameter of the inhibition zone (DIZ) (Aspergillus niger [12]) [mm] | MIC (Candida albicans [13]) [µg/mL]
O=C1C(Cl)C(c2cc3ccccc3nc2Cl)N1c1ccccc1Cl (centres undefined) | 97 | 62.5 (≈ 165 µM) | 24 | 62.5 (≈ 165 µM) | 62.5 (≈ 165 µM) | 20 | 24 | 18 | 21 | 12.5 (≈ 33.1 µM) | 100 (≈ 265 µM) | 50 (≈ 132 µM) | 19 | 100 (≈ 265 µM)
CC[C@@H](CO)NCCN[C@@H](CC)CO [ETHAMBUTOL] | 99 | 3.12 (≈ 15.3 µM) |  |  |  |  |  |  |  |  |  |  |  | 
O=C1C(Cl)C(c2cc3ccccc3nc2Cl)N1c1ccccc1[N+](=O)[O-] (centres undefined) | 92 | 250 (≈ 644 µM) | 20 | 100 (≈ 258 µM) | 100 (≈ 258 µM) | 21 | 21 | 20 | 22 | 62.5 (≈ 161 µM) | 50 (≈ 129 µM) | 62.5 (≈ 161 µM) | 22 | 100 (≈ 258 µM)
Cc1ccc(N2C(=O)CSC2c2cc3ccccc3nc2Cl)cc1 (centres undefined) | 94 | 250 (≈ 704 µM) | 19 | 100 (≈ 282 µM) | 100 (≈ 282 µM) | 20 | 19 | 17 | 17 | 100 (≈ 282 µM) | 100 (≈ 282 µM) | 62.5 (≈ 176 µM) | <10 | 100 (≈ 282 µM)
O=C1C(Cl)C(c2cc3ccccc3nc2Cl)N1c1ccc([N+](=O)[O-])cc1 (centres undefined) | 96 | 50 (≈ 129 µM) | 25 | 100 (≈ 258 µM) | 12.5 (≈ 32.2 µM) | 23 | 23 | 19 | 20 | 50 (≈ 129 µM) | 50 (≈ 129 µM) | 12.5 (≈ 32.2 µM) | 24 | 100 (≈ 258 µM)
O=C1CSC(c2cc3ccccc3nc2Cl)N1c1ccc([N+](=O)[O-])cc1 (centres undefined) | 97 | 50 (≈ 130 µM) | 26 | 62.5 (≈ 162 µM) | 12.5 (≈ 32.4 µM) | 25 | 23 | 24 | 21 | 50 (≈ 130 µM) | 12.5 (≈ 32.4 µM) | 12.5 (≈ 32.4 µM) | 24 | 25 (≈ 64.8 µM)
NC(=O)c1cnccn1 [PYRAZINAMIDE] | 99 | 6.25 (≈ 50.8 µM) |  |  |  |  |  |  |  |  |  |  |  | 
Cc1cnc(N2C(=O)C(Cl)C2c2cc3ccccc3nc2Cl)s1 (centres undefined) | 99 | 12.5 (≈ 34.3 µM) | 23 | 25 (≈ 68.6 µM) | 50 (≈ 137 µM) | 21 | 21 | 23 | 24 | 50 (≈ 137 µM) | 62.5 (≈ 172 µM) | 50 (≈ 137 µM) | 23 | 100 (≈ 275 µM)
O=C1C(Cl)C(c2cc3ccccc3nc2Cl)N1c1ccc(Cl)cc1 (centres undefined) | 95 | 100 (≈ 265 µM) | 21 | 50 (≈ 132 µM) | 50 (≈ 132 µM) | 23 | 24 | 21 | 22 | 12.5 (≈ 33.1 µM) | 100 (≈ 265 µM) | 25 (≈ 66.2 µM) | 22 | 62.5 (≈ 165 µM)
Cc1cccc(N2C(=O)CSC2c2cc3ccccc3nc2Cl)c1 (centres undefined) | 90 | 500 (≈ 1410 µM) | 18 | 100 (≈ 282 µM) | 100 (≈ 282 µM) | 16 | 17 | 13 | <10 | 100 (≈ 282 µM) | 100 (≈ 282 µM) | 100 (≈ 282 µM) | 19 | 100 (≈ 282 µM)
Cc1ccccc1N1C(=O)CSC1c1cc2ccccc2nc1Cl (centres undefined) | 90 | 500 (≈ 1410 µM) | <10 | 100 (≈ 282 µM) | 100 (≈ 282 µM) | <10 | <10 | <10 | <10 | 100 (≈ 282 µM) | 100 (≈ 282 µM) | 100 (≈ 282 µM) | <10 | 100 (≈ 282 µM)
O=C1CSC(c2cc3ccccc3nc2Cl)N1c1ccccc1[N+](=O)[O-] (centres undefined) | 93 | 200 (≈ 518 µM) | 25 | 12.5 (≈ 32.4 µM) | 25 (≈ 64.8 µM) | 25 | 21 | 20 | 24 | 62.5 (≈ 162 µM) | 50 (≈ 130 µM) | 12.5 (≈ 32.4 µM) | 22 | 100 (≈ 259 µM)
O=C1C(Cl)C(c2cc3ccccc3nc2Cl)N1c1ccccc1 (centres undefined) | 90 | 500 (≈ 1460 µM) | <10 | 100 (≈ 291 µM) | 100 (≈ 291 µM) | <10 | <10 | <10 | <10 | 100 (≈ 291 µM) | 100 (≈ 291 µM) | 100 (≈ 291 µM) | <10 | 100 (≈ 291 µM)
Cc1ccc(N2C(=O)C(Cl)C2c2cc3ccccc3nc2Cl)cc1 (centres undefined) | 94 | 200 (≈ 560 µM) | 17 | 100 (≈ 280 µM) | 100 (≈ 280 µM) | 13 | 16 | 19 | 15 | 100 (≈ 280 µM) | 100 (≈ 280 µM) | 100 (≈ 280 µM) | <10 | 100 (≈ 280 µM)
O=C(O)c1cn(C2CC2)c2cc(N3CCNCC3)c(F)cc2c1=O [CIPROFLOXACIN] |  |  | 30 | ≤ 1 | ≤ 1 | 33 | 31 |  | 32 | ≤ 1 |  | ≤ 1 |  | 
CC(=O)N1CCN(c2ccc(OCC3COC(Cn4ccnc4)(c4ccc(Cl)cc4Cl)O3)cc2)CC1 (centres undefined) [KETOCONAZOLE] |  |  |  |  |  |  |  | 33 |  |  | ≤ 3 |  | 30 | ≤ 1

Source: ChEMBL document CHEMBL3045012, “Quinoline-based azetidinone and thiazolidinone analogues as antimicrobial and antituberculosis agents” (2013)
